# From the METLIN SMRT retention time set (Domingo-Almenara et al. 2019)
# Experiment: gradient 5% acetonitrile 3 min, to 50% in 2 min, to 85% in 15 min, held 3 min, 100 µL/min
# Settings: column: Zorbax Extend-C18 2.1 x 50 mm; eluents: water / acetonitrile, 0.1% formic acid
# Method in brief: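 The system's dead and dwell volumes were 40 μL and 900 μL, with a Zorbax Extend-C18 column (2.1 × 50 mm, 1.8 μm) run at 100 μL/min in water and acetonitrile containing 0.1% formic acid each. Pure standards were analyzed in mixtures of ~100 molecules by HPLC–quadrupole time-of-flight mass spectrometry in positive and negative ionization mode. Retention time was assigned from computationally picked, manually inspected adduct peaks.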
structure (smiles),measurement,value
COC[C@@H]1CN(C(=O)c2cc(C)oc2C)C[C@H]1c1nc(C)no1,RP-LC retention time,748 s
COc1ccc(N2C(=O)CCC(C(=O)NC(C)C)C2c2ccc(OC)c(OC)c2)cc1 (stereo not drawn),RP-LC retention time,674 s
CCCN1CCN(C(=O)c2nc(N3CCCCC3)c3c(C)cc(C)nc3n2)CC1,RP-LC retention time,566 s
CCCn1cc(CCNS(=O)(=O)c2ccc(F)c(F)c2)c2cccnc21,RP-LC retention time,884 s
O=C(c1cn2ccnc(-c3ccccc3)c2n1)N1CCN(c2ncccn2)CC1,RP-LC retention time,702 s
Nc1cccc(C(=O)CC2(O)C(=O)Nc3ccc(Cl)cc32)c1 (stereo not drawn),RP-LC retention time,627 s
Cc1cccc(N2CCN([C@H]3CS(=O)(=O)C[C@@H]3S(=O)(=O)c3ccc(F)c(C)c3)CC2)c1,RP-LC retention time,986 s
C=CCNC(=O)C1CCCN(C(=O)Nc2ccc(NC(=O)Nc3ccc(C)cc3C)cc2)C1 (stereo not drawn),RP-LC retention time,760 s
Cn1c(NC(=O)c2ccc(S(=O)(=O)N3CCOCC3)cc2)cc(=O)n(C)c1=O,RP-LC retention time,612 s
CCn1nc(C)c2ccnc(N3CCC(C(=O)N4CCN(c5ccccc5Cl)CC4)CC3)c21,RP-LC retention time,812 s
Cc1cccc(NC(=O)NC2CCN(C(=O)N3C[C@@H]4C[C@H](C3)[C@H]3CCCC(=O)N3C4)CC2)c1,RP-LC retention time,669 s
CN1C(=O)CC[C@]2(CNC(=O)COc3cccc(Cl)c3)CCC[C@@H]12,RP-LC retention time,727 s
O=C(Nc1c(F)cccc1F)N1CCc2nc(-c3ccccc3)ncc2C1,RP-LC retention time,811 s
CC(=O)N1CCN(C(=O)[C@@]23CCCC[C@H]2N(CCC(C)C)C(=O)CC3)CC1,RP-LC retention time,662 s
COCCc1noc(-c2ccc(=O)n(CC(=O)Nc3ccccc3F)c2)n1,RP-LC retention time,695 s
Cc1ccn(-c2ccc(C(=O)NC3CCCC3)cn2)n1,RP-LC retention time,815 s
Cc1cc(C)n(C(=O)c2cn(-c3ccc(S(=O)(=O)N4CCCC(C)C4)cn3)cn2)n1 (stereo not drawn),RP-LC retention time,1020 s
Cn1c(N2CCC(C(=O)NCCCN3CCC(Cc4ccccc4)CC3)CC2)cc(=O)n(C)c1=O,RP-LC retention time,631 s
CCOC(=O)Nc1csnn1,RP-LC retention time,711 s
CC1Oc2ccc(S(=O)(=O)N3CCC(C(=O)Nc4ccccc4F)CC3)cc2NC1=O (stereo not drawn),RP-LC retention time,761 s
COc1ccc(-c2csc(Cc3nc(-c4ccccc4Cl)no3)n2)cc1,RP-LC retention time,1160 s
CC(C)NC(=O)c1ccc(Nc2c(-c3ccc(Cl)cc3)nc3cnccn23)cc1,RP-LC retention time,764 s
O=c1c2ccccc2n(Cc2nc(-c3cccc(Cl)c3)no2)c(=O)n1CC1CCCO1 (stereo not drawn),RP-LC retention time,1110 s
CCc1nc2cc(N3CCC(C(=O)N4CCN(CC)CC4)CC3)cnc2nc1CC,RP-LC retention time,590 s
COc1ccc(-c2cc3c(=O)n(CC(=O)NCC4CCCO4)ncn3n2)cc1 (stereo not drawn),RP-LC retention time,720 s
COc1ccc(S(=O)(=O)N2C[C@H]3CN(S(=O)(=O)c4ccccc4)C[C@@H](C2)O3)cc1,RP-LC retention time,893 s
O=S(=O)(c1ccc(-c2noc(-c3ccccc3Cl)n2)cc1)N1CCOCC1,RP-LC retention time,1100 s
COc1ccc(Nc2cc(C(=O)N3CCCCC3)nc3c(OC)cccc23)cc1OC,RP-LC retention time,570 s
CCC(C(=O)NCCOC)n1nc(C)c2sc3ccccc3c2c1=O (stereo not drawn),RP-LC retention time,826 s
COCCN1CC2(CCCC2)N(Cc2ccc(C(C)C)cc2)CC1=O,RP-LC retention time,690 s
O=C1CC(c2nc(-c3ccccc3)no2)CN1c1ccc(F)cc1 (stereo not drawn),RP-LC retention time,940 s
Cc1cc(C(=O)Nc2ccc(CC(=O)NCc3cccs3)cc2)c(C)o1,RP-LC retention time,762 s
CCn1ccc(C(=O)N2CCCC2c2cccc(C)c2)n1 (stereo not drawn),RP-LC retention time,890 s
Cc1ccc(C)c(NC(=O)Cn2c(N3CCOCC3)nc(C)cc2=O)c1,RP-LC retention time,770 s
O=C(Cn1c(=O)nc(N2CCCCC2)c2ccccc21)Nc1cc(F)cc(F)c1,RP-LC retention time,829 s
CC1CCc2onc(C(=O)N3CCN(c4ccccn4)CC3)c2C1 (stereo not drawn),RP-LC retention time,650 s
N#Cc1ccc(-c2nc(-c3ccc4c(c3)ncn4CCN3CCCC3)no2)cc1,RP-LC retention time,638 s
COC(=O)c1cccc(Nc2c(-c3ccc(OC)cc3)nc3cnccn23)c1,RP-LC retention time,810 s
O=C(Cn1c(=O)n(C2CCCC2)c2ncccc21)Nc1ccc(Br)cc1,RP-LC retention time,998 s
CC(C)(C)c1ccc(S(=O)(=O)N2CCC(C(=O)NCc3csc(-c4ccccc4)n3)CC2)cc1,RP-LC retention time,1130 s
COC(=O)c1ccccc1NC(=O)CSc1nnc2c3cc(-c4ccc(F)cc4)nn3ccn12,RP-LC retention time,957 s
CS(=O)(=O)N1CCC(F)(c2nc(-c3ccccc3)no2)CC1,RP-LC retention time,913 s
Cn1c(NC(=O)c2cccc([N+](=O)[O-])c2)c(-c2cccs2)c(=O)c2ccccc21,RP-LC retention time,701 s
O=C(NCc1ccc(F)cc1F)C1CCN(c2cn[nH]c(=O)c2)CC1,RP-LC retention time,639 s
COc1cc(C(=O)N2CCC3(CC2)NC(=O)c2ccccc2N3C)cc(OC)c1OC,RP-LC retention time,669 s
CCOC(=O)c1cc(S(=O)(=O)N2CCCC2C(=O)Nc2cccc(C)n2)cn1C (stereo not drawn),RP-LC retention time,847 s
Cc1ccccc1/C=C/C1=NCCN1,RP-LC retention time,665 s
Cc1ccccc1-c1noc(CN2C(=O)COc3cc(Cl)ccc32)n1,RP-LC retention time,1150 s
CCC(C)NC(=O)C1CCN(S(=O)(=O)c2ccc3c(c2)sc(=O)n3C)CC1 (stereo not drawn),RP-LC retention time,757 s
NS(=O)(=O)c1ccc(CCNCc2ccc(-c3cc(Cl)ccc3Cl)o2)cc1,RP-LC retention time,712 s
CCNC(=O)N1CC(Oc2cccc(-c3nc(C)no3)c2)C1,RP-LC retention time,705 s
CCN1CCCn2cc(S(=O)(=O)NC3CCN(Cc4ccccc4)CC3)cc2C1=O,RP-LC retention time,597 s
COc1ccc(N2CCN(c3cc(SCC(=O)NCCCc4ccccc4)ncn3)CC2)cc1,RP-LC retention time,1110 s
C=CCn1nc2c(C)c(C)nc(-c3cccnc3)n2c1=O,RP-LC retention time,631 s
Cc1ccn2cc(C(=O)NCC3CCCCC3)nc2c1,RP-LC retention time,714 s
O=C(CCCN1CCC2(CC1)C(=O)NCN2c1ccccc1)c1ccc(F)cc1,RP-LC retention time,725 s
O=C(NCc1cccc2ccccc12)NCC1CCN(C(=O)Oc2ccccc2)CC1,RP-LC retention time,866 s
COc1ccc2cc(C(=O)N3CCC(CC(=O)N4CCN(c5ccccn5)CC4)CC3)[nH]c2c1,RP-LC retention time,623 s
CC(C)C(=O)Nc1ccc2c(c1)nc(CN1CCCC1)n2C(C)C,RP-LC retention time,602 s
COc1ccc(-c2nc3nc(C)cc(C)n3c2Nc2ccc(Cl)cc2)cc1,RP-LC retention time,730 s
O=C(CN1C(=O)C(C(=O)N2CCCCCC2)Sc2ccccc21)N1CCN(c2ccccc2)CC1 (stereo not drawn),RP-LC retention time,663 s
CCCn1cc(C(=O)N2CCc3ccccc32)c2nn(-c3ccccc3)c(=O)c-2c1,RP-LC retention time,840 s
CCCOC(=O)c1[nH]c2c(c1C)C(=O)CC(c1cc(OC)c(OC)c(OC)c1)C2 (stereo not drawn),RP-LC retention time,610 s
CCOCCCNC(=O)C(C)n1c(=O)c(C(F)(F)F)nc2ccccc21 (stereo not drawn),RP-LC retention time,929 s
CN(Cc1ccccc1)Cc1nc(-c2ccc(N3CCSCC3)nc2)no1,RP-LC retention time,837 s
COc1ccccc1CNC1=NCCNC12CCN(S(=O)(=O)c1cc(C)ccc1C)CC2,RP-LC retention time,775 s
COC1CCC12CCN(C(=O)c1cnccn1)CC2 (stereo not drawn),RP-LC retention time,657 s
COCC(=O)N(C1CCOCC1)C1CCN(S(=O)(=O)c2cccnc2)CC1,RP-LC retention time,641 s
CN[C@@H](C)C(=O)N[C@H]1CN(C(=O)CC(C)C)CC[C@H]2CC[C@@H](C(=O)NC(c3ccccc3)c3ccccc3)N2C1=O,RP-LC retention time,757 s
O=C(NCc1ccccc1)c1ccc2c(c1)CCN2C(=O)C1CC1,RP-LC retention time,794 s
CC(C)n1c(=O)sc2cc(S(=O)(=O)N3CCC(C(=O)NCc4cccnc4)CC3)ccc21,RP-LC retention time,808 s
CC1(C(=O)NCc2ccccc2)Cn2cnc(C(=O)NCc3ccccc3F)c2C(=O)N1C1CC1 (stereo not drawn),RP-LC retention time,783 s
CCNc1nc(C)cc(N2CCN(S(=O)(=O)c3ccc(OC)c(C)c3)CC2)n1,RP-LC retention time,723 s
CCOCCCNC(=O)c1cc2n(n1)CCCN(Cc1cccc(C)c1)C2=O,RP-LC retention time,780 s
COc1ccc(-c2nc(C)cc(C)c2CNC(=O)CC2CCCC2)cc1,RP-LC retention time,639 s
CCn1ccc2sc(C)c(C(=O)NCc3cccc(F)c3)c2c1=O,RP-LC retention time,822 s
CCc1nnc2ccc(-c3noc(-c4cccc(Cl)c4)n3)cn12,RP-LC retention time,1070 s
CCCN(C)C(=O)C1CCN(c2cnn(CCC)c(=O)c2)CC1,RP-LC retention time,669 s
C=CCN1C(=O)COc2ccc(-c3nc(NC(C)=O)sc3C)cc21,RP-LC retention time,787 s
C=Cc1ccc(Cn2nc3c(S(=O)(=O)N4CCCCCC4)cccn3c2=O)cc1,RP-LC retention time,999 s
CC(NC(=O)c1n[nH]c2ccccc12)C(=O)N1CCN(c2ccccn2)CC1 (stereo not drawn),RP-LC retention time,595 s
CC(=O)N1CCc2cc(-c3ccc(C(=O)NCc4ccccn4)cc3)ccc21,RP-LC retention time,584 s
O=c1c2cnc3nc(-c4ccccc4)nn3c2ccn1CCc1c[nH]c2ccccc12,RP-LC retention time,925 s
CC(=O)NCc1ccc(-c2noc(-c3ccc(N(C)C)cc3)n2)s1,RP-LC retention time,861 s
CCc1nn(C)c(=O)c2cc(S(=O)(=O)NCc3ccccc3Cl)cn12,RP-LC retention time,893 s
CC1CN=C2C=C(N3CCN(C(=O)CCc4ccccc4)CC3)N=CN21 (stereo not drawn),RP-LC retention time,620 s
O=c1c2cc(-c3ccc4c(c3)OCO4)nn2ccn1Cc1cccc(F)c1,RP-LC retention time,981 s
CCCS(=O)(=O)N1CCCN(C2=NS(=O)(=O)C(c3cccc(Cl)c3)=C2C)CC1,RP-LC retention time,891 s
